Measurements published in patent publication US7138361B2, “Herbicidal heterocycles” (E. I. du Pont de Nemours and Company, priority 2000, dated 2006).

How the values were obtained:
Format in all cases: in vivo
[1] = tested on: cocklebur (Xanthium strumarium); assay: Test B postemergence
Summary of the method: (§1)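 Ratings on a 0 to 100 visual scale (100 complete control) compare treated plants with controls 13 to 15 days after application. Treatments were pre- or postemergence sprays of compound in non-phytotoxic solvent with surfactant.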

[2] = tested on: pigweed (Amaranthus retroflexus); assay: Test B postemergence
Summary of the method: as §1

[3] = tested on: Surinam grass (Brachiaria decumbens); assay: Test B postemergence
Summary of the method: as §1

[4] = tested on: giant foxtail (Setaria faberii); assay: Test B postemergence
Summary of the method: as §1

[5] = tested on: blackgrass (Alopecurus myosuroides); assay: Test B postemergence
Summary of the method: as §1

[6] = tested on: velvetleaf (Abutilon theophrasti); assay: Test B postemergence
Summary of the method: as §1

[7] = tested on: barnyardgrass (Echinochloa crus-galli); assay: Test B postemergence
Summary of the method: as §1

corn (Zea mays) [8] = assay: Test B postemergence
Summary of the method: as §1

[9] = tested on: wheat (Triticum aestivum); assay: Test B postemergence
Summary of the method: as §1

[10] = tested on: lambsquarters (Chenopodium album); assay: Test B postemergence
Summary of the method: as §1

wild oat (Avena fatua) = assay: Test B postemergence
Summary of the method: as §1

[11] = tested on: morning glory (Ipomoea hederacea); assay: Test B postemergence
Summary of the method: as §1

[12] = tested on: crabgrass (Digitaria sanguinalis); assay: Test B postemergence
Summary of the method: as §1

[13] = tested on: lambsquarters (Chenopodium album); assay: Test C preemergence
Summary of the method: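 Preemergence: seeds sown then treated. Postemergence: plants 2–18 cm, 1- to 4-leaf. Both with surfactant-containing solvent formulation; visual injury scored 0–100 after 12–14 d.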

[14] = tested on: cocklebur (Xanthium strumarium); assay: Test B preemergence
Summary of the method: as §1

[15] = tested on: pigweed (Amaranthus retroflexus); assay: Test B preemergence
Summary of the method: as §1

[16] = tested on: Surinam grass (Brachiaria decumbens); assay: Test B preemergence
Summary of the method: as §1

[17] = tested on: giant foxtail (Setaria faberii); assay: Test B preemergence
Summary of the method: as §1

[18] = tested on: velvetleaf (Abutilon theophrasti); assay: Test B preemergence
Summary of the method: as §1

rice (Oryza saliva) = assay: Test B preemergence
Summary of the method: as §1

[19] = tested on: barnyardgrass (Echinochloa crus-galli); assay: Test B preemergence
Summary of the method: as §1

corn (Zea mays) [20] = assay: Test B preemergence
Summary of the method: as §1

[21] = tested on: lambsquarters (Chenopodium album); assay: Test B preemergence
Summary of the method: as §1

[22] = tested on: morning glory (Ipomoea hederacea); assay: Test B preemergence
Summary of the method: as §1

[23] = tested on: crabgrass (Digitaria sanguinalis); assay: Test B preemergence
Summary of the method: as §1

[24] = Rate 125 g/ha, scale 0 to 100, 0 no effect, 100 complete control
[25] = Rate 500 g/ha, scale 0 (no effect) to 100 (complete control), 13 to 15 days
[26] = Preemergence, Rate 500 g/ha, scale 0 to 100, 0 no effect, 100 complete control
[27] = preemergence, Rate 125 g/ha, scale of 0 to 100 where 0 is no effect and 100 is complete control, 13 to 15 days

## COc1cc(N2CCC(n3ccc(C(C)C)n3)C2=O)ccc1Br (stereo not shown) [Compound 140]
[1]; [24]
  Plant response rating, Cocklebur: 60
[1]; [25]
  Plant response rating, Cocklebur: 90
[2]; [24]
  Plant response rating, Pigweed: 60
[2]; [25]
  Plant response rating, Pigweed: 90
[3]; [24]
  Plant response rating, Surinam grass: 0
[3]; [25]
  Plant response rating, Surinam grass: 0
[4]; [24]
  Plant response rating, Foxtail, Giant: 0
[4]; [25]
  Plant response rating, Foxtail, Giant: 70
[5]; [24]
  Plant response rating, Blackgrass: 0
[5]; [25]
  Plant response rating, Blackgrass: 0
[6]; [24]
  Plant response rating, Velvetleaf: 0
[6]; [25]
  Plant response rating, Velvetleaf: 60
[7]; [24]
  Plant response rating, Barnyardgrass: 0
[7]; [25]
  Plant response rating, Barnyardgrass: 80
Corn (Zea mays) [8]; [24]
  Plant response rating, Corn: 0
Corn (Zea mays) [8]; [25]
  Plant response rating, Corn: 0
[9]; [24]
  Plant response rating, Wheat: 0
[9]; [25]
  Plant response rating, Wheat: 0
[10]; [24]
  Plant response rating, Lambsquarters: 70
[10]; [25]
  Plant response rating, Lambsquarters: 100
Wild oat (Avena fatua); [24]
  Plant response rating, Wild Oat: 0
Wild oat (Avena fatua); [25]
  Plant response rating, Wild Oat: 0
[11]; [24]
  Plant response rating, Morningglory: 0
[11]; [25]
  Plant response rating, Morningglory: 100
[12]; [24]
  Plant response rating, Crabgrass: 20
[12]; [25]
  Plant response rating, Crabgrass: 80
[13]; [24]
  Plant response rating, Lambsquarters: 100
[13]; preemergence, Rate 62 g/ha, scale 0 to 100
  Plant response rating, Lambsquarters: 100
[13]; preemergence, Rate 500 g/ha, visual evaluation after 12 to 14 days
  Plant response rating (0 to 100), Lambsquarters: 100
[13]; preemergence, Rate 250 g/ha, scale 0 to 100, 0 no effect, 100 complete control
  Plant response rating, Lambsquarters: 100
[14]; [26]
  Plant response rating, Cocklebur: 60
[14]; [27]
  Plant response rating, Cocklebur: 20
[15]; [26]
  Plant response rating, Pigweed: 100
[15]; [27]
  Plant response rating, Pigweed: 100
[16]; [26]
  Plant response rating, Surinam grass: 100
[16]; [27]
  Plant response rating, Surinam grass: 100
[17]; [26]
  Plant response rating, Foxtail, Giant: 100
[17]; [27]
  Plant response rating, Foxtail, Giant: 100
[18]; [26]
  Plant response rating, Velvetleaf: 80
[18]; [27]
  Plant response rating, Velvetleaf: 60
Rice (Oryza saliva); [26]
  Plant response rating, Rice: 40
Rice (Oryza saliva); [27]
  Plant response rating, Rice: 20
[19]; [26]
  Plant response rating, Barnyardgrass: 100
[19]; [27]
  Plant response rating, Barnyardgrass: 100
Corn (Zea mays) [20]; [26]
  Plant response rating, Corn: 20
Corn (Zea mays) [20]; [27]
  Plant response rating, Corn: 0
[21]; [26]
  Plant response rating, Lambsquarters: 100
[21]; [27]
  Plant response rating, Lambsquarters: 100
[22]; [26]
  Plant response rating, Morningglory: 100
[22]; [27]
  Plant response rating, Morningglory: 0
[23]; [26]
  Plant response rating, Crabgrass: 100
[23]; [27]
  Plant response rating, Crabgrass: 100
